System: PC-3 cells
Experiment: Flow cytometric analysis of hypoxic cell induction
Type: cell-based, human
Conditions: for Mean fluorescence (FITC antibody against pimonidazole adducts): 10 μM pimonidazole, 2 h

O=[N+]([O-])c1nccn1CC(O)CN1CCCCC1 (stereo not drawn) [pimonidazole]
Increase in pimonidazole binding, hypoxic compared to normoxic (PC-3 cells, flow cytometry): fivefold increase
Mean fluorescence (FITC antibody against pimonidazole adducts) (hypoxic PC-3 cells (94.9% N2, 0.1% O2, 5% CO2)): 286
Mean fluorescence (FITC antibody against pimonidazole adducts) (normoxic PC-3 cells (95% air, 5% CO2)): 56.8
